Source: US10849976B2, “Compositions and methods for protecting saponin activity” (SarTec Corporation, priority 2016, dated 2020)
Read-outs that look alike come from different tables or passages of the source.

Tested on: glucose oxidase
Description: In addition, a saponin molecule has a few to several glucose units bonded to it, depending on the exact plant from which the saponin is extracted. Each glucose unit bonded to the saponin may have up to four more hydroxy (—OH) groups attached and pointing outward from the glucose ring into the water solution. Glucose concentrations can be measured by an assay that depends on glucose oxidase acting upon glucose. However, glucose oxidase is prevented from acting upon glucose if borate is effectively bound to glucose. Thus, observing a declining amount of glucose as measured using a glucose oxidase based assay is indicative of borate binding to glucose, which in turn, serves as another indication of the efficacy of the saponin-protective agent.
A standard glucose solution was prepared by weighing about 0.9 g of glucose and 0.450 g of NaCl into a 500.0 mL volumetric flask. Reverse osmosis water was added while mixing the reagents to reach the 500 mL total volume. Next, a 40.0 mL portion of the standard glucose solution was added to a 50 mL vial and 0.106 g of sodium borate was successively added resulting in a molar ratio of borate:glucose in a range of 1:1 to 6:1. Glucose levels were measured using a OneTouch Ultra 2 blood glucose meter.
The glucose level for the standard glucose/saline solution was taken both before and after the borate-containing glucose solutions were measured for glucose concentration.

O=BOB(O)OB(O)OB=O [Sodium Borate, sodium borate]
Protection of glucose from oxidation by glucose oxidase (3:1 borate:glucose molar ratio): effectively entirely protected
Glucose Meter Reading (Borate:Glucose molar ratio 1:1, 0.106 sodium borate added): 106 mg/dL
Glucose Meter Reading (Borate:Glucose molar ratio 2:1, 0.212 sodium borate added): 38 mg/dL
Glucose Meter Reading (Borate:Glucose molar ratio 3:1, 0.318 sodium borate added): “Low Glucose < 20 mg/dL”
Glucose Meter Reading (Borate:Glucose molar ratio 6:1, 0.636 sodium borate added): “Error 4”
